Source: the supplement of paper PMC10307832

What was measured:
Linsitinib + Palbociclib = compound: C[C@]1(O)C[C@@H](c2nc(-c3ccc4ccc(-c5ccccc5)nc4c3)c3c(N)nccn32)C1 [Linsitinib] + CC(=O)c1c(C)c2cnc(Nc3ccc(N4CCNCC4)cn3)nc2n(C2CCCC2)c1=O [Palbociclib] (partner 0.5 µM); assay: relative viability (nuclei count vs DMSO), 5 days (fraction); higher = more cells survive
Method in brief: (§1)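 Medians of duplicate plates are given as relative viability. That measure is the nuclei count in treated wells divided by the count in vehicle wells. Counts were taken on 4× images of lung cancer cell lines in 1536-well plates, 5 days after pin-tool dosing the day after seeding with one drug alone or a fixed anchor-drug dose plus five library-drug doses (not always all listed) in √10 steps.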

Ispinesib + AZD7762 = compound: Cc1ccc(C(=O)N(CCCN)[C@@H](c2nc3cc(Cl)ccc3c(=O)n2Cc2ccccc2)C(C)C)cc1 [Ispinesib] + NC(=O)Nc1cc(-c2cccc(F)c2)sc1C(=O)N[C@H]1CCCNC1 [AZD7762] (partner 0.2 µM); assay: as above
Method in brief: as §1

Cell Line	relative viability (Linsitinib + Palbociclib; first compound 0.01 µM)	relative viability (Linsitinib + Palbociclib; first compound 0.03162 µM)	relative viability (Linsitinib + Palbociclib; first compound 0.1 µM)	relative viability (Linsitinib + Palbociclib; first compound 1 µM)	relative viability (Ispinesib + AZD7762; first compound 0.001 µM)	relative viability (Ispinesib + AZD7762; first compound 0.003162 µM)	relative viability (Ispinesib + AZD7762; first compound 0.01 µM)	relative viability (Ispinesib + AZD7762; first compound 0.03162 µM)	relative viability (Ispinesib + AZD7762; first compound 0.1 µM)	relative viability (Linsitinib + Palbociclib; first compound 0.3162 µM)
HOP-62	0.435	0.424	0.49	0.45	0.441	0.848	0.679	0.482	0.214	–
LC-2-ad	0.412	0.392	0.483	0.423	0.942	0.941	1.02	0.425	0.322	0.433
NCI-H522	1.01	0.83	1.04	0.977	0.782	1.01	0.913	0.845	0.316	0.673
NCI-H322M	0.475	0.521	0.492	0.463	0.561	0.654	0.464	0.494	0.484	0.478
SK-LU-1	0.436	0.303	0.394	0.384	–	–	–	–	–	0.391
NCI-H1734	0.338	0.394	0.334	0.31	0.709	0.627	0.64	0.448	0.245	0.313
HCC-44	0.962	0.928	0.879	0.825	0.983	1.1	1.02	1.03	0.756	0.785
NCI-H1703	–	–	–	–	0.16	0.121	0.134	0.0817	0.0822	–
NCI-H2170	0.386	0.4	0.381	0.412	0.897	0.88	0.909	0.225	0.17	–
NCI-H1395	0.653	–	0.713	0.654	0.411	0.403	0.356	0.31	0.355	0.641
NCI-H1355	0.384	0.345	0.309	0.269	0.783	0.847	0.805	0.448	0.284	0.308
NCI-H1650	0.399	0.299	0.305	0.253	–	–	–	–	–	0.246
NCI-H1666	0.626	0.565	0.656	0.604	0.872	0.922	0.898	0.699	0.641	0.526
HCC-78	0.45	0.539	0.458	0.501	0.691	0.592	0.532	0.526	0.422	0.525
H3255	0.309	0.341	0.313	0.299	0.94	1.06	0.89	0.623	0.311	0.321
NCI-H23	0.519	0.415	0.415	0.313	0.202	0.254	0.274	0.184	0.157	0.326
NCI-H1944	0.398	0.418	0.286	0.296	0.443	0.483	0.482	0.32	0.189	0.303
NCI-H1651	0.543	0.525	0.494	0.489	0.531	0.561	0.524	0.441	0.408	0.486
COR-L 105	0.38	0.403	0.437	0.358	–	–	–	–	–	0.373
RERF-LC-KJ	0.909	0.795	1.05	1.1	0.88	1.1	1.07	0.701	0.243	0.464
NCI-H1793	0.288	0.342	0.283	0.26	0.476	0.494	0.352	0.412	0.295	0.26
CAL-12T	0.429	0.388	0.412	0.424	0.707	0.74	0.594	0.52	0.212	0.321
NCI-H1993	0.646	0.668	0.484	0.456	0.918	0.821	0.636	0.646	0.508	0.686
LXF-289	0.565	0.62	0.607	0.614	1.09	1.12	1.22	0.788	0.119	0.493
NCI-H1792	–	0.712	0.527	0.375	0.73	0.742	0.828	0.119	0.157	0.599

Cell Line	relative viability (Linsitinib + Palbociclib; first compound 0.01 µM)	relative viability (Linsitinib + Palbociclib; first compound 0.03162 µM)	relative viability (Linsitinib + Palbociclib; first compound 0.1 µM)	relative viability (Linsitinib + Palbociclib; first compound 1 µM)	relative viability (Ispinesib + AZD7762; first compound 0.001 µM)	relative viability (Ispinesib + AZD7762; first compound 0.003162 µM)	relative viability (Ispinesib + AZD7762; first compound 0.01 µM)	relative viability (Ispinesib + AZD7762; first compound 0.03162 µM)	relative viability (Ispinesib + AZD7762; first compound 0.1 µM)	relative viability (Linsitinib + Palbociclib; first compound 0.3162 µM)
LU99A	0.392	0.432	0.434	0.36	0.474	0.368	0.394	0.161	0.14	–
SW 1573	0.428	0.358	0.333	0.33	–	–	–	–	–	0.259
COR-L23	0.278	0.3	0.249	0.226	–	–	–	–	–	0.198
NCI-H1755	0.475	0.48	0.467	0.444	0.489	0.437	0.433	0.408	0.274	0.345
LOU-NH91	0.513	0.539	0.484	0.549	0.807	0.854	0.877	0.432	0.297	0.529
EMC-BAC-2	0.512	0.509	0.493	0.425	1.22	1.23	1.34	0.704	0.599	0.478
ChaGo-K-1	0.926	0.897	0.974	0.978	1.01	0.874	0.879	0.903	0.245	–
NCI-H2023	0.4	0.245	0.37	0.26	–	–	–	–	–	0.256
EKVX	–	0.408	0.39	0.316	0.777	–	0.767	0.464	0.303	0.288
NCI-H2085	0.434	0.465	0.493	0.478	0.962	1.08	1.07	0.806	0.466	0.445
NCI-H3122	0.202	0.222	0.17	0.216	0.996	0.982	1.15	0.835	0.141	–
HCC-827	0.408	0.572	0.468	0.529	0.229	0.21	0.146	0.198	0.197	–
HARA	0.276	0.274	0.223	0.268	0.501	0.345	0.365	0.308	0.227	0.203
NCI-H441	0.197	0.226	0.199	0.119	1.41	1.22	1.44	0.64	0.309	0.138
NCI-H1648	0.238	0.304	0.252	0.212	0.653	0.774	0.682	0.616	0.273	0.279
SK-MES-1	0.325	0.297	0.323	0.324	–	–	–	–	–	0.296
SW 900	0.506	0.544	0.534	0.505	0.635	0.492	0.648	0.565	0.259	0.476
HCC-15	0.75	0.703	0.702	0.569	1.26	1.33	1.34	0.902	0.154	0.283
ABC-1	0.793	0.537	0.627	0.425	0.981	1.21	0.852	0.395	0.301	0.428
EPLC-272H	0.337	0.351	0.327	0.335	0.226	0.253	0.21	0.16	0.0883	–
NCI-H2009	0.119	0.203	0.19	0.24	–	–	–	–	–	0.105
NCI-H661	0.41	0.433	0.381	0.412	–	–	–	–	–	0.379
NCI-H520	0.175	0.212	0.244	0.215	–	–	–	–	–	–
NCI-H2405	0.503	0.537	0.521	0.473	0.867	0.791	0.73	0.711	0.363	0.47
LCLC-97TM1	0.223	0.205	0.191	0.212	0.322	0.348	0.326	0.247	0.119	0.195

Cell Line	relative viability (Linsitinib + Palbociclib; first compound 0.01 µM)	relative viability (Linsitinib + Palbociclib; first compound 0.03162 µM)	relative viability (Linsitinib + Palbociclib; first compound 0.1 µM)	relative viability (Linsitinib + Palbociclib; first compound 1 µM)	relative viability (Ispinesib + AZD7762; first compound 0.001 µM)	relative viability (Ispinesib + AZD7762; first compound 0.003162 µM)	relative viability (Ispinesib + AZD7762; first compound 0.01 µM)	relative viability (Ispinesib + AZD7762; first compound 0.03162 µM)	relative viability (Ispinesib + AZD7762; first compound 0.1 µM)	relative viability (Linsitinib + Palbociclib; first compound 0.3162 µM)
NCI-H727	0.708	0.719	0.63	0.554	0.722	0.564	–	0.548	0.498	0.553
NCI-H2342	0.677	0.524	0.521	0.54	0.609	0.432	0.528	0.411	0.373	0.531
NCI-H2228	0.809	0.62	0.619	0.513	–	–	–	–	–	0.546
LK-2	0.968	0.58	0.615	0.554	0.358	0.552	0.306	0.154	0.185	0.371
PC-3 [JPC-3]	0.548	0.544	0.558	0.493	0.937	0.9	0.798	0.542	0.368	0.471
NCI-H596	–	–	–	–	1.2	0.683	1.19	1.15	0.423	–
NCI-H460	0.192	0.0289	0.184	0.142	0.711	0.757	1.01	0.632	0.0769	–
NCI-H647	0.377	0.459	0.32	0.322	0.662	0.564	0.451	0.185	0.172	0.171
NCI-H838	0.23	0.207	0.17	0.162	1.01	0.804	1.03	0.941	0.714	0.19
PC-14	0.513	0.46	0.521	0.507	0.44	0.484	0.388	0.142	0.111	0.429
NCI-H358	0.144	0.14	0.121	0.107	0.654	0.462	0.514	0.433	0.253	0.113
NCI-H1915	0.514	0.595	0.473	0.307	0.728	0.687	0.748	0.451	0.112	0.489
201T	0.357	0.371	0.374	0.374	0.662	0.521	0.643	0.65	0.309	0.364
NCI-H1437	0.291	0.33	0.321	0.346	1.16	1.15	1.18	1.13	0.296	0.276
A-427	0.516	0.568	0.535	0.494	0.853	0.817	0.976	0.462	0.32	–
HCC-366	0.441	0.394	0.359	0.328	0.267	0.29	0.204	0.346	0.0475	0.303
BEN	0.487	0.422	0.45	0.468	0.745	0.85	0.678	0.472	0.347	0.361
NCI-H2347	0.372	0.498	0.468	0.399	0.558	0.856	0.745	0.701	0.636	0.34
LCLC-103H	0.435	0.414	0.427	0.486	0.849	0.836	0.887	0.484	0.434	0.367
NCI-H650	0.348	0.364	0.339	0.291	1.15	1.21	1.09	0.634	0.456	–
NCI-H1975	0.571	0.588	0.517	0.39	0.678	0.829	0.781	0.617	0.279	0.429
NCI-H2126	0.345	0.365	0.347	0.334	1.04	1.08	1.2	1.03	0.591	0.352
NCI-H2087	0.205	0.268	0.15	0.299	1.35	1.37	1.48	1.02	0.558	0.175
